Data as given in ChEMBL document CHEMBL2069217, “Self-organizing molecular field analysis of NSAIDs: assessment of pharmacokinetic and physicochemical properties using 3D-QSPkR approach” (Eur J Med Chem, 2012).

Test: Dissociation constant, pKa of the compound
Assay type: physicochemical

| pKa | Compound |
| --- | --- |
| 6.9 | CC(C(=O)O)c1ccc2oc(-c3ccc(Cl)cc3)nc2c1 (stereo not drawn) [BENOXAPROFEN] |
| 4.5 | CC1=C(CC(=O)O)c2cc(F)ccc2/C1=C\c1ccc([S+](C)[O-])cc1 (stereo not drawn) |
| 4.7 | Cc1cc(CC(=O)O)n(C)c1C(=O)c1ccc(Cl)cc1 [ZOMEPIRAC] |
| 4.2 | Cc1cccc(Nc2ccccc2C(=O)O)c1C [MEFENAMIC ACID] |
| 4.7 | CCCCC1C(=O)N(c2ccccc2)N(c2ccc(O)cc2)C1=O (stereo not drawn) [OXYPHENBUTAZONE ANHYDROUS] |
| 4 | CC(C(=O)O)c1ccc(C(=O)c2cccs2)cc1 (stereo not drawn) [SUPROFEN] |
| 4.7 | CC(C(=O)O)c1ccc2c(c1)[nH]c1ccc(Cl)cc12 (stereo not drawn) [CARPROFEN] |
| 4.3 | O=C(O)CCc1nc(-c2ccccc2)c(-c2ccccc2)o1 [OXAPROZIN] |
